Measurements reported in patent US6727272B1, “Leflunomide analogs for treating rheumatoid arthritis” (Unitech Pharmaceuticals, Inc., priority 2002, dated 2004).
Where two headings read alike, the source gives them in different places.

System: Carrageenan-stimulated inflammation on the rear left footpad of the rat
Assay: Carrageenan-induced footpad edema in rats (Edema Rate E% and Inhibition Rate I%)
Format: in vivo, Wistar Albino Rats
Conditions: sc, vs control group edema rate, read-out: percentage inhibition rate (I %)
Method: Wistar Albino Rats of 4 to 6 weeks old with weights of 100-150 g were used for the studies.
Weigh 30 mg of λ-carrageenan (Sigma Chemical) powder; add 3 mL of saline to make the 1% carrageenan solution.
Individually weigh 10 mg of each testing compound; add 10 mL of 1% CMC and shake to make the suspension.
In the present invention, Carrageenan was used to stimulate the inflammation on the rear left footpad of the rat. The inflammation on the left footpad of each rat was measured for rats with and without treatment. Treatment includes leflunomide analogs, dexamethasone, ibuprofen, and Malononitrilamide (MNA). Measurements of the inflamation at pre-determined time points were made.
The rats were weighed and divided into three groups: (1) Control Group, (2) Test Group, and (3) Comparison Group. For each compound, 5 rats were used and marked on the tails. Before injecting carrageenan, the volume of each left footpad was measured (V0). Each rat was injected in the back as follows:
(1) Control Group: 1% CMC for Control Group,
(2) Testing Group: testing compound (10 mg/kg each) in 1% CMC, and
(3) Comparison Group: dexamethasone (1.5 mg/kg in 1% CMC), ibuprofen 10 mg/kg in 1% CMC, MNA in 1% CMC.
One hour later, 0.05 mL of 1% carrageenan was injected onto the rear footpad of each rat to initiate the inflammation. Measure the volume of the rear left footpad (Vt) at 0.5, 1, 2, 3, 4, and 5 hours.
The Edema Rate (E%) and the Inhibition Rate (I%) are calculated as follows and the results of the in-vivo studies are summarized in Table 1 and Table 2. [formula]
V0=Volume (mL) of the rear left footpad before the injection of Carrageenan.
Vt=Volume (mL) of the rear left footpad at “t” time after the injection of Carrageenan
Ec=Edema Rate of the, Control Group
Et=Edema Rate of the Testing Group and Comparison Group

| Compound | inhibition in vivo at 10 mg/kg (1 h, 1 hr) | inhibition in vivo at 10 mg/kg (2 h, 2 hr) | inhibition in vivo at 10 mg/kg (3 h, 3 hr) | inhibition in vivo at 10 mg/kg (4 h, 4 hr) | inhibition in vivo at 10 mg/kg (5 h, 5 hr) | other results |
| --- | --- | --- | --- | --- | --- | --- |
| Cc1cc(C(=O)Nc2ccc(C(=O)O)cc2)no1 [Compound 5j, 4-[(5-Methylisoxazole-3-carbonyl)-amino]-benzoic acid] | 50.5% | 46.7% | 56.2% | 58.3% | 57.4% |  |
| COc1cc(NC(=O)c2cc(C)on2)cc(OC)c1OC [Compound 5i, N-(3,4,5-Trimethoxyphenyl)-3-carboxamidyl-5-methylisoxazole] | 6.7% | 34% | 39.1% | 42.7% | 42.5% |  |
| Cc1cc(C(=O)Nc2ccc(F)cc2)no1 [Compound 5k, N-(4-Fluorophenyl)-3-carboxamidyl-5-methylisoxazole] | 46.2% | 17.5% | 38.7% | 43.5% | 43.7% |  |
| Cc1cc(C(=O)Nc2cccc(Cl)c2)no1 [Compound 5c, N-(3-Chlorophenyl)-3-carboxamidyl-5-methylisoxazole] | 64.4% | 55.3% | 60.6% | 63.8% | 61.1% |  |
| Cc1cc(C(=O)Nc2ccc(C(F)(F)F)cc2)no1 [Compound 5f, N-(4-Trifluoromethylphenyl)3-carboxamidyl-5-methylisoxazole] | 46.2% | 53.8% | 54.6% | 58.4% | 58.3% |  |
| CC(C)Cc1ccc(C(C)C(=O)O)cc1 (stereo not drawn) [Ibuprofen, reference compound] | 9.1% | 21.6% | 45.9% | 44.4% | 38% | inhibition in vivo at 20 mg/kg (1 h, 1 hr): 20.8%; inhibition in vivo at 30 mg/kg (1 h, 1 hr): 65.4%; inhibition in vivo at 20 mg/kg (2 h, 2 hr): 43.2%; inhibition in vivo at 30 mg/kg (2 h, 2 hr): 67.8%; inhibition in vivo at 20 mg/kg (3 h, 3 hr): 55.7%; inhibition in vivo at 30 mg/kg (3 h, 3 hr): 79.7%; inhibition in vivo at 20 mg/kg (4 h, 4 hr): 55.1%; inhibition in vivo at 30 mg/kg (4 h, 4 hr): 74.9%; inhibition in vivo at 20 mg/kg (5 h, 5 hr): 51.6%; inhibition in vivo at 30 mg/kg (5 h, 5 hr): 53% |
| Cc1cc(C(=O)Nc2ccccc2)no1 [Compound 5a, N-(Phenyl)-3-carboxamidyl-5-methylisoxazole] | 62.5% | 74.9% | 78.8% | 78.4% | 44.5% |  |
| Cc1cc(C(=O)Nc2ccccc2Cl)no1 [Compound 5b] | 80.1% | 82.5% | 79.4% | 79% | 77.7% |  |
| COc1ccc(NC(=O)c2cc(C)on2)cc1 [Compound 5h, N-(4-Methoxyphenyl)-3carboxamidyl-5-methylisoxazole] | 24% | 18.9% | 41.6% | 44.3% | 43.1% |  |
| Cc1cc(C(=O)Nc2ccc(Cl)cc2Cl)no1 [Compound 5g, N-(2,4-Dichlorophenyl)-3carboxamidyl-5-methylisoxazole] | 79.3% | 83.1% | 77.4% | 79% | 78% |  |
| Cc1oncc1C(=O)Nc1ccc(C(F)(F)F)cc1 [Leflunomide, N-(4-trifluoromethylphenyl)-4-carboxamidyl-5-methylisoxazole] | 28.4% | 34.3% | 55% | 47.8% | 46% | inhibition in vivo at 5 mg/kg (1 h, 1 hr): 3.8%; inhibition in vivo at 20 mg/kg (1 h, 1 hr): 45.7%; inhibition in vivo at 5 mg/kg (2 h, 2 hr): 19.5%; inhibition in vivo at 20 mg/kg (2 h, 2 hr): 50%; inhibition in vivo at 5 mg/kg (3 h, 3 hr): 41%; inhibition in vivo at 20 mg/kg (3 h, 3 hr): 60.4%; inhibition in vivo at 5 mg/kg (4 h, 4 hr): 38.6%; inhibition in vivo at 20 mg/kg (4 h, 4 hr): 60.3%; inhibition in vivo at 5 mg/kg (5 h, 5 hr): 38.3%; inhibition in vivo at 20 mg/kg (5 h, 5 hr): 57.4% |
| Cc1cc(C(=O)Nc2cccc(C(F)(F)F)c2)no1 [Compound 5e, N-(3-Trifluoromethyl)-3-carboxamidyl-5-methylisoxazole] | 26% | 41.7% | 40.7% | 44% | 46.8% |  |
| C[C@@H]1C[C@H]2[C@@H]3CCC4=CC(=O)C=C[C@]4(C)[C@@]3(F)[C@@H](O)C[C@]2(C)[C@@]1(O)C(=O)CO [Dexamethasone, reference compound] |  |  |  |  |  | inhibition in vivo at 1.5 mg/kg (1 h, 1 hr): 73.6%; inhibition in vivo at 1.5 mg/kg (2 h, 2 hr): 64.5%; inhibition in vivo at 1.5 mg/kg (3 h, 3 hr): 65.8%; inhibition in vivo at 1.5 mg/kg (4 h, 4 hr): 66.5%; inhibition in vivo at 1.5 mg/kg (5 h, 5 hr): 66.4% |
| Cc1cc(C(=O)Nc2ccc(Cl)cc2)no1 [Compound 5d, N-(4-Chlorophenyl)-3carboxamidyl-5-methyisoxazole] | 70.2% | 72.8% | 77.6% | 77.8% | 76% |  |
